In PubChem BioAssay AID602235 (The Scripps Research Institute Molecular Screening Center, 2012) one finds IC50 data, which are given here for four molecules.

pIC50: −log10 of the molar value. Activity calls are given as the source filed them. The rule behind the calls is not given here. A value given as a limit tells only on which side of the number the result lay.

The target of this assay is Nuclear receptor coactivator 1 (Homo sapiens) (UniProt Q15788). Briefly: inhibition of NCOA1 transcriptional coactivation in cells – cell-based, luciferase reporter, luminescence, dose response (AID 602235).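 Note: cells transfected with pGL4.31 reporter plus pBIND-SRC1 vector; potency is for inhibitors that lower SRC1 reporter luminescence.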 The conditions noted are these: cell-based SRC1 luciferase reporter. (In general: In a reporter assay the amount or activity of a reporter protein is the signal.)
Sequence of Nuclear receptor coactivator 1 (Homo sapiens) (Q15788 whole entry, looked up): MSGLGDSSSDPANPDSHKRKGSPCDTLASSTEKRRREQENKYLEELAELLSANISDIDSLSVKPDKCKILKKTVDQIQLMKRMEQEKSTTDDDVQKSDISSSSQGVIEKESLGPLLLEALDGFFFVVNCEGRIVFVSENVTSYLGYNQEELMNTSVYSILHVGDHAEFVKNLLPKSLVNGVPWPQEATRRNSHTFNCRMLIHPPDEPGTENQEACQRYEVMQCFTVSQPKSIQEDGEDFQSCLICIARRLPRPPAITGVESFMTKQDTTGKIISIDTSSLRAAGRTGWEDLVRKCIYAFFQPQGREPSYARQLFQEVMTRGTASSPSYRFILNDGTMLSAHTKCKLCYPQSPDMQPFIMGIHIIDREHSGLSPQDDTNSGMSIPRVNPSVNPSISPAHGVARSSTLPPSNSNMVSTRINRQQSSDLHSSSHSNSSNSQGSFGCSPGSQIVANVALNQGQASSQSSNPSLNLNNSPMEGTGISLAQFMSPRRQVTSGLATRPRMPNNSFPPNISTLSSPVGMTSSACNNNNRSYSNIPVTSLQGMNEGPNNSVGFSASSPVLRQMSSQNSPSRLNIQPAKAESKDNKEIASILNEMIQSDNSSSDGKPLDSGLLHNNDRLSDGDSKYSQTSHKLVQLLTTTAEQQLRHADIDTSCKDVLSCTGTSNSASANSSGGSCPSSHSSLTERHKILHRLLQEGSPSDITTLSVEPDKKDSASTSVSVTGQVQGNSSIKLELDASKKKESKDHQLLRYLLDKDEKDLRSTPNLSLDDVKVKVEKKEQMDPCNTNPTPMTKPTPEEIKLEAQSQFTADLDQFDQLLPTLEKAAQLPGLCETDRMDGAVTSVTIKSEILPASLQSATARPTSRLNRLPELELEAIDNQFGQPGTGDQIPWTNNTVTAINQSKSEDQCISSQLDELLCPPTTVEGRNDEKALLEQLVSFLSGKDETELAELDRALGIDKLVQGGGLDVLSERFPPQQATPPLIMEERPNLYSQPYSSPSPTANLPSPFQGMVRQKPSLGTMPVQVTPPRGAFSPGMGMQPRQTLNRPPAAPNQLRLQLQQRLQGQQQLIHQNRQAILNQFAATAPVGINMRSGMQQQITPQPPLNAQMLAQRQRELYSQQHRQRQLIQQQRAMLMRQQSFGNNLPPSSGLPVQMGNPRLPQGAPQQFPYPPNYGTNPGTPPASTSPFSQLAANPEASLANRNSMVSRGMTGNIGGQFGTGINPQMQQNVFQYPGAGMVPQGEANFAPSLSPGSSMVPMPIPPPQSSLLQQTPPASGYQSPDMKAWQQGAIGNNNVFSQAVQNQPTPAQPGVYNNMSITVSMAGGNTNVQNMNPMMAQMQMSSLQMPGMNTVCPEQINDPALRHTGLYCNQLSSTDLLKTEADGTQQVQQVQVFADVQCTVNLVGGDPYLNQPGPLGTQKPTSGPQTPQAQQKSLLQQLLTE
One may read the IC50 as the point on the concentration scale where inhibition reaches its midpoint. For the molecule `O=[N+]([O-])c1ccc2c(c1)-c1ccccc1C2=NO`, the IC50 entry is “inactive”.

For orientation: pIC50 means the IC50 on a negative log10 scale, so that one unit is a factor of ten. Turning to `O=C(CCl)N1N=C(c2ccco2)CC1c1ccco1` (centres undefined), the pIC50 was 5.24.

As for `O=C(CCC(=O)Nc1ccc(Br)cc1)N/N=C/c1ccccc1O`, the negative-log IC50 (pIC50) was 5.31.

As for `COc1cc(C(=O)N/N=C(\c2ccccc2)c2ccccn2)cc(OC)c1OC`, the IC50 was > 11.9 µM (inactive).
